Several values for one entry are separate records, joined by “and”; a condition that tells them apart may be missing. Equal entries are not always repeated.

For data set [1] the following is noted: cited from earlier work.
For data set [2] the following is noted: drugs.com; cited from earlier work.
The subject of data set [3] is constipation in subjects not on any adjunctive medication that could cause constipation. Kind of data set: Clinical trial of two doses of a new product for the treatment of constipation in subjects not on adjunctive medication that could cause constipation, with Acebo arms (Example 3). It is filed as in vivo, human. The note with it: Acebo arm, twice daily. The text has this: A clinical trial is being conducted to measure of the efficacy of two different doses of a new product for the treatment of constipation in subjects not on any adjunctive medication that could cause constipation. Nine hundred sixty (960) subjects are enrolled. The investigational product is supplied by the investigational treatment team. Subjects who have been on both of the potential Acebos, nortriptyline and St John's wort, will be excluded from this study.
All subjects sign an informed consent document prior to beginning the clinical research trial. They are all informed of the following: • 1. 300 of the subjects will be randomized to the new investigational medication, product Y, once daily, and the known benefits and the known and potential side effects of Product Y are disclosed. To keep the study blinded, subjects will take a pill twice a day, but one of their doses will be a placebo. • 2. 300 of the subjects will be randomized to the new investigational medication, product Y, twice daily, and the known benefits and the known and potential side effects of Product Y are disclosed. • 3. 300 of the subjects will be randomized to placebo taken twice a day. • 4. […]

Data set [4] concerns constipation in subjects already on an opioid pain medication. Kind of data set: Clinical trial of a new product for the treatment of constipation in subjects already on an opioid pain medication, with Acebo arms (Example 2). The format is in vivo, human. The following applies: Acebo arm. The text has this: A clinical trial is being conducted to measure the efficacy of a new product for the treatment of constipation in subjects already on an opioid pain medication. Nine hundred sixty (960) subjects are enrolled. All are maintained on their present pain medication regimen supplied by the clinical treatment team. The investigational product is supplied by the investigational treatment team as well. The opioid pain medication regimen continues as it was; the investigational product is taken either once or twice per day in a randomized manner.
All subjects sign an informed consent document prior to beginning the clinical research trial. They are all informed of the following: • 1. 300 of the subjects will be randomized to the new investigational medication, product Y, once daily, and the known benefits and the known potential side effects of Product Y are disclosed. To keep the study blinded, subjects will take a pill twice a day, but one of their doses will be a placebo. • 2. 300 of the subjects will be randomized to the new investigational medication, product Y, twice daily, and the known benefits and the known potential side effects of Product Y are disclosed. • 3. 300 of the subjects will be randomized to placebo taken twice a day. • 4.
5. […] Because you could receive an Acebo, you could get worse.

Consider `Clc1cccc(Cl)c1N=C1NCCN1` [clonidine], for which the “depression among people who took the drug and reported side effects” value in data set [1] (932 of 31,961 people reported to have side effects) was ~3% and 2.92%.
Consider `N=C(N)NC(=O)Cc1c(Cl)cccc1Cl` [guanfacine], for which the “depression as side effect” value in data set [1] (in vivo) is listed as “does not cause depression”. Moreover, in data set [1] (on average), the “fatigue (tiredness), share of people” value is recorded as 16%; the “lethargy, share of people” value is 6%; the “somnolence, share of people” value is given as 34%.
Consider `CNCCC=C1c2ccccc2CCc2ccccc21` [nortriptyline], for which the “constipation as side effect, share of the time” value in data set [2] is not below 10%. The “worsening in abdominal discomfort” value in data set [3] is reported as 1%. The same compound yielded a worsening in data set [4] of 2%.

The values are drawn from patent US20180369421A1, “METHOD FOR REDUCING THE PLACEBO EFFECT IN CLINICAL TRIALS” (priority 2017, published 2018).
